These results are taken from patent US10980819B2, “High concentration formulation” (Cassiopea S.P.A., priority 2015, dated 2021).

Read-outs that look alike come from different tables or passages of the source.

Data set [1] in a line: Franz cell diffusion test 1 (Example 7). The class given is in vitro ADME. Particulars: for Permeation rate / Skin concentration: 48 h, saturated solution, 300 mg on 2.54 cm^2 skin, 32° C. On the procedure: In an in vitro study, the skin penetration potential of cortexolone-17α-propionate was compared to cyproterone acetate using a standard Franz cell. According to the protocol, 300 mg of each test formulations was applied as saturated solution with a concentration ranging from 0.7 to 1 weight (w/w) to 2.54 cm^2 of exposed skin area. The receptor chamber volume ranged from 4.75 ml to 6.4 ml of phosphate buffered saline/fetal calf serum (2:1) containing penicillin/streptomycin according to standard protocol, and was maintained at a temperature of 32° C.+/−1° C. Stirring was maintained at 300 rpm.
The experiments were conducted for 48 h in triplicate. 100 μl fractions were withdrawn at 5-7 time points during the 48 h test period. After withdrawing a 100 μl fraction for analysis, it was replaced with fresh receiver fluid in an equal volume. At the end of the experiment, the skin was taken from the Franz cells and the skin's stratum corneum was removed by tape stripping (20×) with transparent adhesive tape (Koren, Spain).
The strippings were analyzed by dissolution in a mixture of propylene glycol:oeyl alcohol 9:1. The resulting mixture was analyzed for concentration of cyproterone acetate and cortexolone-17α-propionate, with the results provided in Table 12, below.

For data set [2], the system named is AGA. The experiment in a line: Finasteride 1 mg tablets phase III clinical studies 087 and 089, published by the FDA (Example 11). The class given is in vivo, human. The settings on record: original value divided by 5.1. On the procedure: Based on the results of finasteride 1 mg tablets (PROPECIA®) described in the two Phase III clinical studies published online by the United States Food and Drug Administration (the FDA), it can be concluded that the mean change from baseline in non-vellus TAHC at month 6 for cortexolone-17α-propionate solution 5% (according to Example 4b), as reported in Example 9, is very similar to the mean change from baseline in non-vellus TAHC at month 6 observed in 2 phase III clinical trials on finasteride 1 mg tablets (tradename Propecia®) per os once daily. Table 20 below reports the change from baseline in TAHC at month 6 in the two finasteride studies (data of active finasteride groups) as described in the NDA for PROPECIA® published online by the FDA:
In the two finasteride studies, the target area was a 1-inch diameter circle, which corresponds to 5.1 cm^2. In order to compare the changes from baseline in TAHC at month 6 obtained in the finasteride studies and the change from baseline in TAHC at month 6 obtained with cortexolone-17α-propionate in the study of the present Example 9 (where the target area was 1 cm^2), the original finasteride data have been recalculated to take into account the differences between the total surfaces of the target areas (i.e., the values were divided by 5.1) as shown in Table 21.

The conditions of data set [3]: PROPECIA package insert; 1 mg tablets; cited from earlier work.
The test system of data set [4] is serum DHT as well as scalp DHT. The settings on record: single oral administration of finasteride 1 mg; cited from earlier work.
Data set [5] deals with AGA. The settings on record: cited from earlier work.
A short description of data set [6]: Clinical evaluation, excretion parameters at 1st and 55th application (Example 6). The class given is in vivo, human. Particulars: for Analyte Excreted, Free / Analyte Excreted, Total: formulation of Example 4b on scalp. On the procedure:
The formulation described in Example 4b was studied in a clinical trial to evaluate its pharmacokinetic profile, safety, and tolerability. According to the study protocol, 1 ml of the formulation (corresponding to 50 mg of cortexolone-17α-propionate) was applied once a day on study day 1 and then twice daily thereafter on study days 2-28 to the areas of the scalp suffering from alopecia. Statistical analyses were performed using SAS® version 9.1.3, service pack 4 for Windows and Phoenix WinNonLin 6.3, Pharsight Corporation, USA.

Data set [7] can be described thus: Evaluation of cortexolone-17α-propionate solubility (Example 1). The settings on record: 5 g in 100 ml. The class given is physicochemical. On the procedure: 5 g of cortexolone-17α-propionate was added to 100 ml of each of the solvents or solvent mixtures shown in Table 1, below, in an effort to produce a 5% w/v solution of cortexolone-17α-propionate. In the examples in Table 1, ethanol refers to ethanol 96°.

The mark [8] stands for this setting: 1st Application (Day 1), N = 18.
Setting [9] is: 55th Application (Day 28), N = 17.

In data set [1], `CC(=O)O[C@]1(C(C)=O)CC[C@H]2[C@@H]3C=C(Cl)C4=CC(=O)[C@@H]5C[C@@H]5[C@]4(C)[C@H]3CC[C@@]21C` [Cyproterone Acetate, cyproterone acetate, reference compound] registered a Permeation rate of 141 ± 17 ng/mL/h and a Skin concentration of 89.4 ± 4.6 µg/g.
Regarding `CC(C)(C)NC(=O)[C@H]1CC[C@H]2[C@@H]3CC[C@H]4NC(=O)C=C[C@]4(C)[C@H]3CC[C@]12C` [finasteride], the results for the “Change from Baseline in non-vellus TAHC at Month 6, recalculated over a target area of 1 cm^2” value in data set [2] (Combined (study 087 + 089)), in data set [2] (Study 087) and in data set [2] (Study 089) were 12.2, 13.6 and 11.5, respectively. The “patients with adverse events (decreased libido, erectile dysfunction, ejaculation disorders, decreased volume of ejaculate)” value in data set [3] is reported as 1%. The “decrease of serum DHT as well as scalp DHT compared to baseline” value in data set [4] was “up to 70%”. Further, the “Change from Baseline in non-vellus TAHC at Month 6” value in data set [5] (Combined (study 087 + 089), target area 5.1 cm^2) is on record as 62.4; in data set [5] (Study 087, target area 1-inch diameter circle, 5.1 cm^2, 1 mg per os once daily), 69.5; in data set [5] (Study 089, target area 1-inch diameter circle, 5.1 cm^2, 1 mg per os once daily), 58.4.
Turning to `CCC(=O)O[C@]1(C(=O)CO)CC[C@H]2[C@@H]3CCC4=CC(=O)CC[C@]4(C)[C@H]3CC[C@@]21C` [Cortexolone-17α-propionate, 17α-propionyloxy-21-hydroxy-pregna-4-ene-3,20-dione], the “% Excreted, Free” value in data set [6] (setting [8]) is 0 ± 0%. The “% Excreted, Total” value in data set [6] (setting [8]) worked out at 0.25 ± 0.10%. For the same compound, the “Analyte Excreted, Free” value in data set [6] (setting [8]) amounted to 0.16 ± 0.34 µg; in data set [6] (setting [9]) it was 2.72 ± 1.54 µg. Besides, the “Analyte Excreted, Total” value in data set [6] (setting [8]) came to 126.37 ± 48.99 µg; in data set [6] (setting [9]) it was 429.53 ± 178.24 µg. Besides, the “Cortexolone-17α-propionate Solubility at Room Temperature” value (“Cortexolone-17α-propionate Solubility” below) in data set [7] (Caprylocaproyl polyoxyl-8 glycerides NF (LABRASOL ®)) is “Sparingly soluble”; in data set [7] (Ethanol (96°)) it was “Highly soluble”; in data set [7] (Ethanol/propylene glycol (1:1) v:v), “Soluble”; in data set [7] (Ethanol/propylene glycol/TRANSCUTOL ® (1:1:1) v:v), “Very soluble”; in data set [7] (Isopropyl myristate) it was “Insoluble”; in data set [7] (Isopropyl palmitate), “Insoluble”. The “Cortexolone-17α-propionate Solubility” value is recorded as “Sparingly soluble” in data set [7] (Propylene glycol); “Insoluble” in data set [7] (TRANSCUTOL ®/water (1:1) v:v); “Soluble” in data set [7] (TRANSCUTOL ®/water/ethanol (1:1:1) v:v); “Very soluble” in data set [7] (TRANSCUTOL ®); “Insoluble” in data set [7] (Water/propylene glycol/TRANSCUTOL ® (1:1:1) v:v); “Soluble” in data set [7] (Water/propylene glycol/TRANSCUTOL ® (1:1:2) v:v). Also, the “Cortexolone-17α-propionate Solubility” value in data set [7] (Water) is recorded as “Insoluble”. The Permeation rate in data set [1] is 1410 ± 137 ng/mL/h. This compound came in with a Skin concentration in data set [1] of 231 ± 19 µg/g. Moreover, the “permeates skin, times as much as cyproterone acetate” value in data set [1] (versus cyproterone acetate) is recorded as “about 3 times”. Moreover, the “permeation rate, times greater than cyproterone acetate” value in data set [1] (versus cyproterone acetate) is “about 10 times”.
Consider `C[C@]12CCC(=O)C=C1CC[C@@H]1[C@@H]2CC[C@@]2(C)[C@H]1CC[C@]2(O)C(=O)CO` [Cortexolone, cortexolone], for which the “Analyte Excreted, Free” value in data set [6] (setting [8]) and in data set [6] (setting [9]) was “BLQL” throughout. For the same compound, the “Analyte Excreted, Total” value in data set [6] (setting [8]) is 0.06 ± 0.26 µg; in data set [6] (setting [9]), 0.64 ± 0.74 µg.
